Test results from PubChem BioAssay (NCI).
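Where inhibition never reached the appropriate level, the endpoint shown equals the highest concentration tested. Otherwise, values were interpolated linearly from a five-concentration, 48-hour dose response in 96-well plates. Definition used: TGI = concentration required for complete inhibition of growth.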

What was measured:
Experiment in all cases: NCI anticancer screen, dose series, 48 h
SK-MEL-28 melanoma = test system: SK-MEL-28 melanoma
OVCAR-3 ovarian = test system: OVCAR-3 ovarian
786-0 renal = test system: 786-0 renal
OVCAR-4 ovarian = test system: OVCAR-4 ovarian
UACC-257 melanoma = test system: UACC-257 melanoma
NCI-H226 lung = test system: NCI-H226 lung
M14 melanoma = test system: M14 melanoma
BT-549 breast = test system: BT-549 breast
PC-3 prostate = test system: PC-3 prostate
A549 NSCLC = test system: A549 NSCLC
SK-MEL-2 melanoma = test system: SK-MEL-2 melanoma
SK-OV-3 ovarian = test system: SK-OV-3 ovarian

SMILES	TGI (SK-MEL-28 melanoma) [µM]	TGI (OVCAR-3 ovarian) [µM]	TGI (786-0 renal) [µM]	TGI (OVCAR-4 ovarian) [µM]	TGI (UACC-257 melanoma) [µM]	TGI (NCI-H226 lung) [µM]	TGI (M14 melanoma) [µM]	TGI (BT-549 breast) [µM]	TGI (PC-3 prostate) [µM]	TGI (A549 NSCLC) [µM]	TGI (SK-MEL-2 melanoma) [µM]	TGI (SK-OV-3 ovarian) [µM]
CC(CSC(=N)N)C(N)=O (centres undefined)	> 100	> 100	> 100	> 100	> 100	> 100	> 100	> 100	> 100	> 100	> 100	> 100
CCCCOCCOCCOC1=CC(=O)c2c(O)ccc(O)c2C1=O	2.95	3	2.95	3.4	2.97	3.59	2.85	3.16	7.53	3.43	3.52	> 10
COc1ccc(C(O)/C(=N/N)c2nc3ccc(Cl)cc3[nH]c2=O)cc1 (centres undefined)	> 100	> 100	> 100	> 100	> 100	> 100	> 100	> 100	> 100	> 100	> 100	> 100
CC(=O)CCCCn1c(=O)c2c(nc(Br)n2C)n(C)c1=O	> 100	> 100	> 100	> 100	> 100	> 100	> 100	> 100	> 100	> 100	> 100	> 100
Nc1nc(Nc2ccc(Cl)c(Cl)c2)nc2nc[nH]c12	–	27	31.3	48.4	32.7	50.2	29.8	25.8	41.2	33.6	39.2	31.8
O[C@]12C=C(c3nccc4c3[nH]c3ccccc34)[C@@H]3CCN(CCCC/C=C\CC1)C[C@@]31CC3/C=C\CCCCN3[C@H]12 (some centres undefined)	2.76	1.55	0.615	> 25.1	3.39	5.2	0.896	10.4	12	11.2	0.534	0.743
FC(F)(F)c1ccc(C2ON=C(c3ccccc3)N2C23CC4CC(CC(C4)C2)C3)cc1 (centres undefined)	> 10	> 10	> 10	> 10	> 10	> 10	> 10	> 10	> 10	> 10	> 10	> 10
CC(C)=CCCC(C)(OC1OC(CO)C(O)C(O)C1O)C1CCC2(C)C1C(O)CC1C3(C)CCC(O)C(C)(C)C3C(OC3OC(CO)C(O)C(O)C3OC3OC(C)C(O)C(O)C3O)CC12C (centres undefined) (tested in a mixture with another compound)	> 75	> 75	> 75	> 75	> 75	> 75	> 75	> 75	> 75	> 75	> 75	> 75
O=C(CNc1ccccn1)Nn1cnc2ccc(S(=O)(=O)Nc3ccccn3)cc2c1=O	> 100	> 100	> 100	> 100	> 100	> 100	> 100	> 100	> 100	> 100	> 100	> 100
C[C@@H](CC(O)C(O)C(C)(C)O)C1CCC23CC12CCC1[C@@]2(C)CCC(O)C(C)(C)C2CC(OC2OC(CO)C(O)C(O)C2O)[C@]13C (some centres undefined)	> 10	> 10	> 10	> 10	> 10	> 10	> 10	> 10	> 10	> 10	> 10	> 10
O=C1Oc2ccccc2C1C/C(=N\Nc1ccccc1)c1ccccc1O (centres undefined)	> 100	> 100	> 100	> 100	90.5	> 100	> 100	> 100	> 100	> 100	> 100	> 100
CCc1n[nH]c(=O)n1CCCCCCCCn1c(CC)n[nH]c1=O	–	> 100	> 100	> 100	> 100	> 100	> 100	> 100	> 100	> 100	> 100	> 100
CN(C)c1ccc(/C=C/C(=O)c2ccc(O)cc2)cc1	> 100	9.37	> 78.3	> 100	> 92.4	> 100	> 100	> 59	63.2	> 100	> 49.1	61.9
O=c1[nH]nc(Cc2ccccc2)n1/N=C/c1cccs1	> 100	> 100	> 100	> 100	> 100	> 100	> 100	> 100	> 100	> 100	> 100	> 100
CSc1ncnc2c1cnn2Cc1cn(COCCO)nn1	> 100	59.1	> 100	> 100	> 100	> 100	> 100	> 100	> 100	> 100	> 100	> 100
C=C1CC(C)(COc2ccc3c(C)c(Cl)c(=O)oc3c2)OC1=O (centres undefined)	7.59	16.9	4.65	10.4	3.48	17.8	3.65	2.81	12	25.5	4.47	17.6
CSc1nc(=S)[nH]c2c1c(C)nn2-c1ccccc1	> 100	> 100	88.1	40.9	51.9	51.2	> 100	> 100	68.3	> 100	68.5	90.3
Brc1ccc(C2C3CSc4ccccc4C3=NN2c2ccccc2)cc1 (centres undefined)	> 100	> 100	> 100	91.7	95.6	> 100	> 100	> 100	> 100	> 100	> 100	> 100
